According to paper PMC9516332 (Frontiers in Oncology, 2022):
Read-outs that look alike come from different tables or passages of the source.

Tests used:
134 cancer cell lines = assay: Cell viability assay (ATPlite, 72 hours), IC50 on cancer cell line panel
AP-1060 (ETV6-NTRK3) = assay: Cell viability assay; conditions: read-out: IC50 in cell proliferation assay
[1] = biological target: T1, panel of 255 wild-type kinases (Homo sapiens, UniProt Q9BZL6); assay: Kinase panel profiling at 1 µmol/L (MSA or IMAP), percentage inhibition; assay type: biochemical; conditions: kinase PKD2; 1 µmol/L single concentration; read-out: %-inhibition at 1 µmol/L, PKD2
T1 sequence (Q9BZL6 1-878): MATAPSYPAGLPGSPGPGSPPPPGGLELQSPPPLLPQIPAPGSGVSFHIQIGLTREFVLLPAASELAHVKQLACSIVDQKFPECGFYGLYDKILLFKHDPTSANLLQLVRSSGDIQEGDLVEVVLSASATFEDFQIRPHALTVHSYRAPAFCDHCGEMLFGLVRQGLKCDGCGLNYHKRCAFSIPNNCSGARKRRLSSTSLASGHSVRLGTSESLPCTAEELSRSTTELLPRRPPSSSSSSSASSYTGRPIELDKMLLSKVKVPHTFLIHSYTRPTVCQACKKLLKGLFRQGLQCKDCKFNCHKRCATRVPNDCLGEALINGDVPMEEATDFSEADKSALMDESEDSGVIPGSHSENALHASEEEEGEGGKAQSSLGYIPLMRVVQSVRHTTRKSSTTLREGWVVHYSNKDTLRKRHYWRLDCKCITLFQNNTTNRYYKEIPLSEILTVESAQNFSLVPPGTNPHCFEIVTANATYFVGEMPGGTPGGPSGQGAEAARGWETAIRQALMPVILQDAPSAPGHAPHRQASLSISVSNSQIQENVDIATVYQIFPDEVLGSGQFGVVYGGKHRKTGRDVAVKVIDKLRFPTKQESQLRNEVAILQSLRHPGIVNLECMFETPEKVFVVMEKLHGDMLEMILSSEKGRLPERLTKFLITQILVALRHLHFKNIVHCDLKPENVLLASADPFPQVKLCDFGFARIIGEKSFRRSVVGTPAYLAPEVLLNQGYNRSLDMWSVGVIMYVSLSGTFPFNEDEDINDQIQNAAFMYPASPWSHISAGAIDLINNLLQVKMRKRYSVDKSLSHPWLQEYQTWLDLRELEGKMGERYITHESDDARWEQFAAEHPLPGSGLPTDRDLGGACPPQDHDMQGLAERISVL

C=CC(=O)N1CCC([C@@H]2CCNc3c(C(N)=O)c(-c4ccc(Oc5ccccc5)cc4)nn32)CC1 [zanubrutinib]
IC50 (134 cancer cell lines; Homo sapiens, MCF7, read-out: IC50 in cell proliferation assay): > 31.6 µM
IC50 (134 cancer cell lines; Homo sapiens, MDA-MB-231, read-out: IC50 in cell proliferation assay): > 31.6 µM
IC50 (134 cancer cell lines; Homo sapiens, MDA-MB-453, read-out: IC50 in cell proliferation assay): 4.19 µM
IC50 (134 cancer cell lines; Homo sapiens, MDA-MB-468, read-out: IC50 in cell proliferation assay): 3.9 µM
IC50 (134 cancer cell lines; Homo sapiens, MG-63, read-out: IC50 in cell proliferation assay): 29.3 µM
IC50 (134 cancer cell lines; Homo sapiens, MIA PaCa-2, read-out: IC50 in cell proliferation assay): > 31.6 µM
IC50 (134 cancer cell lines; Homo sapiens, MKN-45, read-out: IC50 in cell proliferation assay): > 31.6 µM
IC50 (134 cancer cell lines; Homo sapiens, MOLM-13, read-out: IC50 in cell proliferation assay): 2.06 µM
IC50 (134 cancer cell lines; Homo sapiens, MOLT-4, read-out: IC50 in cell proliferation assay): 16.5 µM
IC50 (134 cancer cell lines; Homo sapiens, MV4-11, read-out: IC50 in cell proliferation assay): 3.72 µM
IC50 (134 cancer cell lines; Homo sapiens, MeWo, read-out: IC50 in cell proliferation assay): > 31.6 µM
IC50 (134 cancer cell lines; Homo sapiens, NCCIT, read-out: IC50 in cell proliferation assay): 11.4 µM
IC50 (134 cancer cell lines; Homo sapiens, NCI-H82, read-out: IC50 in cell proliferation assay): > 31.6 µM
IC50 (134 cancer cell lines; Homo sapiens, NCI-H460, read-out: IC50 in cell proliferation assay): > 31.6 µM
IC50 (134 cancer cell lines; Homo sapiens, NCI-H661, read-out: IC50 in cell proliferation assay): 0.612 µM
IC50 (134 cancer cell lines; Homo sapiens, NCI-H716, read-out: IC50 in cell proliferation assay): 11.7 µM
IC50 (134 cancer cell lines; Homo sapiens, NCI-H1650, read-out: IC50 in cell proliferation assay): 13.9 µM
IC50 (134 cancer cell lines; Homo sapiens, NCI-H1975, read-out: IC50 in cell proliferation assay): 4.6 µM
IC50 (134 cancer cell lines; Homo sapiens, NCI-H2228, read-out: IC50 in cell proliferation assay): > 31.6 µM
IC50 (134 cancer cell lines; Homo sapiens, OVCAR-3, read-out: IC50 in cell proliferation assay): 1.53 µM
IC50 (134 cancer cell lines; Homo sapiens, PFSK-1, read-out: IC50 in cell proliferation assay): 18 µM
IC50 (134 cancer cell lines; Homo sapiens, RL95-2, read-out: IC50 in cell proliferation assay): 1.17 µM
IC50 (134 cancer cell lines; Homo sapiens, RPMI-7951, read-out: IC50 in cell proliferation assay): > 31.6 µM
IC50 (134 cancer cell lines; Homo sapiens, RS4-11, read-out: IC50 in cell proliferation assay): 26.5 µM
IC50 (134 cancer cell lines; Homo sapiens, SHP77, read-out: IC50 in cell proliferation assay): > 31.6 µM
IC50 (134 cancer cell lines; Homo sapiens, SK-BR-3, read-out: IC50 in cell proliferation assay): 0.141 µM
IC50 (134 cancer cell lines; Homo sapiens, SK-N-AS, read-out: IC50 in cell proliferation assay): 15.5 µM
IC50 (134 cancer cell lines; Homo sapiens, SK-N-FI, read-out: IC50 in cell proliferation assay): > 31.6 µM
IC50 (134 cancer cell lines; Homo sapiens, SK-N-MC, read-out: IC50 in cell proliferation assay): 23.1 µM
IC50 (134 cancer cell lines; Homo sapiens, SK-N-SH, read-out: IC50 in cell proliferation assay): > 31.6 µM
IC50 (134 cancer cell lines; Homo sapiens, SNU-5, read-out: IC50 in cell proliferation assay): 8.94 µM
IC50 (134 cancer cell lines; Homo sapiens, SNU-16, read-out: IC50 in cell proliferation assay): 8.54 µM
IC50 (134 cancer cell lines; Homo sapiens, SNU-C2B, read-out: IC50 in cell proliferation assay): 0.866 µM
IC50 (134 cancer cell lines; Homo sapiens, SU-DHL-1, read-out: IC50 in cell proliferation assay): 16.8 µM
IC50 (134 cancer cell lines; Homo sapiens, SU-DHL-6, read-out: IC50 in cell proliferation assay): 0.00375 µM
IC50 (134 cancer cell lines; Homo sapiens, SUP-T1, read-out: IC50 in cell proliferation assay): 17.5 µM
IC50 (134 cancer cell lines; Homo sapiens, SW48, read-out: IC50 in cell proliferation assay): 0.043 µM
IC50 (134 cancer cell lines; Homo sapiens, SW480, read-out: IC50 in cell proliferation assay): 9.56 µM
IC50 (134 cancer cell lines; Homo sapiens, SW626, read-out: IC50 in cell proliferation assay): 2.71 µM
IC50 (134 cancer cell lines; Homo sapiens, SW780, read-out: IC50 in cell proliferation assay): 5.82 µM
IC50 (134 cancer cell lines; Homo sapiens, SW837, read-out: IC50 in cell proliferation assay): 6 µM
IC50 (134 cancer cell lines; Homo sapiens, SW872, read-out: IC50 in cell proliferation assay): > 31.6 µM
IC50 (134 cancer cell lines; Homo sapiens, SW900, read-out: IC50 in cell proliferation assay): 5.84 µM
IC50 (134 cancer cell lines; Homo sapiens, SW948, read-out: IC50 in cell proliferation assay): > 31.6 µM
IC50 (134 cancer cell lines; Homo sapiens, SW982, read-out: IC50 in cell proliferation assay): > 31.6 µM
IC50 (134 cancer cell lines; Homo sapiens, SW-620, read-out: IC50 in cell proliferation assay): 4.75 µM
IC50 (134 cancer cell lines; Homo sapiens, T98G, read-out: IC50 in cell proliferation assay): > 31.6 µM
IC50 (134 cancer cell lines; Homo sapiens, TCC-SUP, read-out: IC50 in cell proliferation assay): > 31.6 µM
IC50 (134 cancer cell lines; Homo sapiens, THP-1, read-out: IC50 in cell proliferation assay): > 31.6 µM
IC50 (134 cancer cell lines; Homo sapiens, U2OS, read-out: IC50 in cell proliferation assay): 10.7 µM
IC50 (134 cancer cell lines; Homo sapiens, U-87 MG, read-out: IC50 in cell proliferation assay): > 31.6 µM
IC50 (134 cancer cell lines; Homo sapiens, U-118-MG, read-out: IC50 in cell proliferation assay): > 31.6 µM
IC50 (134 cancer cell lines; Homo sapiens, UMUC3, read-out: IC50 in cell proliferation assay): 24.1 µM
IC50 (134 cancer cell lines; Hs766T, read-out: IC50 in cell proliferation assay): > 31.6 µM
IC50 (134 cancer cell lines; L-82, read-out: IC50 in cell proliferation assay): 17.6 µM
IC50 (134 cancer cell lines; Rh30, read-out: IC50 in cell proliferation assay): 17.4 µM
IC50 (AP-1060 (ETV6-NTRK3)): > 31.6 µM
inhibition at 1 µM [1]: 2.31%
